Laboratory results as given in US12100151B2, “Droplet imaging pipeline” (Xilis, Inc., priority 2022, dated 2024).
“Also recorded” adds a separate entry of the source.

Key:
sarcoma cancer MOS [1] = experiment: CTG luminescent cell viability assay on sarcoma cancer MOS; type: cell-based; details: sarcoma MOS treated on Day 7 after establishment; FIG. 5F top panel
Procedure: To measure cell viability, we used the CTG luminescent cell viability assay. CellTiter-Glo 3-D reagent (Promega, catalog no. G9681) was added in a 1:1 ratio with the initial well volume ([…], of CTG reagent 96-well plates and 384-well plates, respectively). The plates were placed on a shaker for 30 min. We measured luminescence by using a plate reader for each well.
Cell viability was assessed using both metabolic and imaging parameters. For the metabolic assay, Day 0 brightfield images were used to normalize CTG measurements for each well. Total surface areas (tSA) outputted from the machine learning model were used for normalizing the plating variations. The measured CTG value of each well was then divided by these surface area ratios to determine the adjusted CTG values. These adjusted CTG values were used to generate drug response curves, e.g., viability curves for each drug condition.
(§1) The imaging-based MOS drug assay allowed further delineating MOS 3D structures from individual stromal cells by overcoming fundamental limits of bulk assays, e.g., cell number, well-to-well variation, heterogeneity, and signal-to-noise ratio.

sarcoma cancer MOS [2] = experiment: live/dead cell dye imaging assay on sarcoma cancer MOS; type: cell-based; details: sarcoma MOS treated on Day 7 after establishment; FIG. 5F bottom panel
Excerpt: as §1

CRC #5 = CRC #5 model; for sizes of CRC #5 MOS: FIG. 5A top panel; for drug response curve by median CAM/EtH dye ratios as compared to CTG based assay: FIG. 5C; for cytostatic vs. cytotoxic drug effect: from size, CAM/EtH ratio and CTG
Excerpt: (§2) The plates were scanned using the Celigo imaging cytometer and its software. We collected the brightfield images on the day (day 0) of the drug treatment and on the day right before performing the CellTiter-Glo (CTG) assay. Upon inserting the plate, images were set to be acquired on brightfield, green, and red fluorescence channels. The brightfield channel was used to focus the device and ensure the MOS boundaries were crisp. The green (live cell) fluorescence channel exposure time was then adjusted to ensure pixel intensity was below 200 across the control triplicate wells to avoid overexposure. This process was repeated for the red (dead cell) fluorescence channel in the positive control, killing condition triplicate wells. After scanning the plate, the stitched images of each well were exported in tiff format for the downstream imaging analysis.
(§3) We performed the live and dead cell staining on the same day prior to the CTG assay. For 96 well plates, a working dye solution of 20 μM Ethidium Homodimer-2 (Thermo Fisher, Cat. No. E3599) and 5 μM Calcein AM (Thermo Fisher, catalog No. C3100MP) was prepared by adding 1 mM Calcein AM, 1 mM Ethidium Homodimer-2, and CRC media in a 1:8:191 ratio. For 384-well plates, the working dye solution of 10 μM Ethidium Homodimer-2 and 2.5 μM Calcein AM was prepared by adding 1 mM Calcein AM, 1 mM Ethidium Homodimer-2, and colorectal cancer (CRC) media in a 1:8:391 ratio. After the solution was prepared, 11 μL and 10 μL of dye solution were added to each well on the 96-well and 384-wells plates, respectively, to yield a final well concentration of 2 μM Ethidium Homodimer-2 and 0.5 μM Calcein AM. The plates were then incubated for 45 min at 37° C.
(§4) Therefore, in studies involving the ratio of live-cell stain to dead-cell stain, we increased the predicted object mask to capture all the dead-stain fluorescence signal. The size increase was performed using one iteration of the dilate algorithm in OpenCV with a kernel size of 10×10. Any other MOSs detected by the machine learning model that overlap with this expanded region were removed before the integrated fluorescence was computed.
For the live and dead cell dyes-based imaging assay, the integrated live cell dye (Calcein AM) and dead cell dye (Eth) signals for each segmented object were determined. To assess drug response at individual MOS level, the integrated intensities, or the ratios of Calcein AM/EtH, were shown on the scatter plot or histogram. The correlation of dose-dependent drug response with the median ratios of the integrated live/dead cell dye intensities from each well were computed and plotted.
(§5) To further increase the resolution and power of MOS drug assay pipeline, we developed an orthogonal approach by spiking a combination of live-cell (Calcein AM, CAM) and dead-cell (Ethidium Homodimer II, EtH) dyes (FIG. 5A; scale bar of 200 μm) into the drug assay plates prior to performing the CTG assay. We were able to quantitatively measure the integrated intensities of the CAM and EtH dyes in addition to MOS sizes.

CRC #6 = experiment: imaging-based MOS drug assay (MOS size, live/dead CAM/EtH dyes) on CRC #6; type: cell-based; details: CRC #6 model
Excerpt: as §2, §3, §4
For the live and dead cell dyes-based imaging assay, the integrated live cell dye (Calcein AM) and dead cell dye (Eth) signals for each segmented object were determined. […]
as §5

CC(=O)O[C@@]12CO[C@@H]1C[C@H](O)[C@@]1(C)C(=O)[C@H](O)C3=C(C)[C@@H](OC(=O)[C@H](O)[C@@H](NC(=O)OC(C)(C)C)c4ccccc4)C[C@@](O)([C@@H](OC(=O)c4ccccc4)[C@H]21)C3(C)C [Docetaxel]
bulk CTG readouts (raw CTG or adjusted CTG) drug response curves (sarcoma cancer MOS [1]): not able to provide any meaningful dose-dependent drug response curves | drug response by median values of live/dead cell ratios (sarcoma cancer MOS [2]): clear dose-dependent drug response

C#Cc1cccc(Nc2ncnc3cc(OCCOC)c(OCCOC)cc23)c1 [Erlotinib]
sizes of CRC #5 MOS (CRC #5): decreased | drug response curve by median CAM/EtH dye ratios as compared to CTG based assay (CRC #5): divergence between CTG plot and CAM/EtH ratio plot | cytostatic vs. cytotoxic drug effect (CRC #5): cytostatic effect; also recorded: cytostatic but not the cytotoxic effect | sensitivity of the model to the drug (CRC #6): resistant to EGFR inhibition | sizes of CRC #6 MOS (CRC #6): no obvious decrease

Nc1ccn([C@@H]2O[C@H](CO)[C@@H](O)C2(F)F)c(=O)n1 [Gemcitabine]
bulk CTG readouts (raw CTG or adjusted CTG) drug response curves (sarcoma cancer MOS [1]): not able to provide any meaningful dose-dependent drug response curves | drug response by median values of live/dead cell ratios (sarcoma cancer MOS [2]): less sensitive response

CCc1c2c(nc3ccc(O)cc13)-c1cc3c(c(=O)n1C2)COC(=O)[C@]3(O)CC [SN38]
sizes of CRC #5 MOS (CRC #5): decreased | drug response curve by median CAM/EtH dye ratios as compared to CTG based assay (CRC #5): comparable dose-dependent drug responses | cytostatic vs. cytotoxic drug effect (CRC #5): cytotoxic effect | ratios of CAM/EtH dye integrated intensities (CRC #5; live-cell Calcein AM / dead-cell Ethidium Homodimer II): only decreased in the wells treated with SN38 | drug resistant clones identified (CRC #6; FIG. 5A and FIG. 5D): identified the drug resistant clones | drug response curve by median CAM/EtH dye ratios as compared to CTG based assay (CRC #6; FIG. 5C): comparable dose-dependent drug responses
